Values after ≈ are worked out from the molar mass of the structure shown.
Settings: buffer; pH 7.4; 200.0 µM

| SMILES | solubility kinetic [µg/mL] |
| --- | --- |
| O=C(CCc1ccccc1)NC1C2CC3CC(C2)CC1C3 (configuration not stated) | 34.6 (≈ 122 µM) |
| Cc1cccc(N2CC(C(=O)O)CC2=O)c1C (configuration not stated) | > 35 |
| Cn1cc(S(=O)(=O)Nc2ccc(OC(F)(F)F)cc2)c(=O)n(C)c1=O | > 56.9 |
| O=C(COc1cc(Cl)ccc1Cl)Nc1ccc2[nH]c(=O)[nH]c2c1 | 2.7 (≈ 7.67 µM) |
| CCc1ccccc1NC(=O)COC(=O)C1C2CC3OC(=O)C1C3C2 (configuration not stated) | 46.2 (≈ 135 µM) |
| COC(=O)C1CCN(CC(=O)NC(=O)NC2CCCCC2)CC1 | > 48.8 |
| COC(=O)c1[nH]c2c(c1C)C(=O)CC(c1cccc(OC)c1)C2 (configuration not stated) | 2.1 (≈ 6.7 µM) |
| CCN(CC)C(=O)c1sc2nc(-c3ccccc3)ccc2c1N | 19.8 (≈ 60.8 µM) |
| O=C(CCS(=O)(=O)c1ccc(F)cc1)N1CCOCC1 | > 45.2 |
| Cl.c1ccc2c(c1)CN1CCCC1=N2 | > 31.3 |
| Cc1c(CN2CCN(CC(C)(C)C)C(CCO)C2)[nH]c2ccccc12 (configuration not stated) | 45.1 (≈ 131 µM) |
| Cc1ccc(Cl)cc1NC(=O)CON=C(N)c1ccccc1 | 32.4 (≈ 102 µM) |
| O=S(=O)(NCc1cn2ccccc2n1)c1ccccc1F | > 45.8 |
| CC(Sc1ncnc2sccc12)C(=O)Nc1ccc(S(N)(=O)=O)cc1 (configuration not stated) | 8.7 (≈ 22.1 µM) |
| CN(C)c1cccc(C(=O)N/C=C/n2cnc3cc(C(F)(F)F)ccc32)c1 | 0.4 (≈ 1.07 µM) |
| Cc1cccnc1NC(=O)NC(=O)c1ccc(C(C)(C)C)s1 | 9.1 (≈ 28.7 µM) |
| CCCOc1ccc(NC(=O)CCC(=O)NC(C)c2ccccc2)cc1 (configuration not stated) | 0.5 (≈ 1.41 µM) |
| Cc1cc(NC(=O)COc2cccc([N+](=O)[O-])c2)no1 | 2.9 (≈ 10.5 µM) |
| CCc1ccc(NC(=O)CCc2ccc(C)o2)cc1 | 5.3 (≈ 20.6 µM) |
| NS(=O)(=O)c1ccc(NC(=O)/C=C/c2ccco2)cc1 | 36.3 (≈ 124 µM) |
| CN(C)C=Nc1nonc1-c1ccc(Cl)cc1 | 1.4 (≈ 5.58 µM) |
| CN(CC(=O)Nc1ccc(F)cc1)CC(=O)N1CCCCC1 | > 46.1 |

| SMILES | solubility kinetic [µg/mL] |
| --- | --- |
| Cc1ccc2nc(SCC(=O)NCc3cccs3)[nH]c2c1 | > 47.6 |
| CCN(CC)c1ccc(C(=O)OCC(=O)N2CCCC2)cc1 | > 45.7 |
| O=C(CN1CCCCC1)NC(=O)Nc1ccccc1F | > 41.9 |
| CCOC(=O)Cc1csc(NC(=O)Nc2ccc(C)cc2)n1 | 3.8 (≈ 11.9 µM) |
| COC(=O)c1ccc2c(c1)C(C)(C)C(/C=C/c1ccc(O)cc1)=[N+]2C.[I-] | 41.6 |
| O=C(COC(=O)c1ccc([N+](=O)[O-])o1)Nc1ccc(Br)cc1F | 21 (≈ 54.2 µM) |
| CC1(C)Cc2nc3oc4c(SCC(N)=O)ncnc4c3cc2CO1 | 17.8 (≈ 51.7 µM) |
| CCC(=O)N(Cc1cc(=O)[nH]c2ccccc12)c1ccccc1 | > 46 |
| Cc1ccc2cc(NC(=O)c3cccc(F)c3)ccc2n1 | 28.6 (≈ 102 µM) |
| O=C(NCC1CCCO1)c1cc2c(=O)[nH]c3ccccc3c2s1 (configuration not stated) | 2.6 (≈ 7.92 µM) |
| N#Cc1cccc(NC(=O)Cc2ccccc2)c1 | > 35.4 |
| N#Cc1ccc(Oc2ccc(NC(=O)C3CC=CCC3C(=O)O)cc2)cc1 (configuration not stated) | > 54.4 |
| O=C(NCCc1c[nH]c2ccccc12)c1ccc(F)cc1F | > 45 |
| N#CCc1ccc(OC(=O)c2cnccc2C(F)(F)F)cc1 | 13.6 (≈ 44.4 µM) |
| Fc1cccc(CSc2nc3ncc(Cl)cc3[nH]2)c1 | 2.6 (≈ 8.85 µM) |
| CC(=O)Nc1nc(CC(C)C)cc(-c2ccccc2)c1C#N | > 44 |
| O=C(COC(=O)c1ccccc1O)NCCCc1ccccc1 | 5 (≈ 16 µM) |
| O=C(NCC(c1ccco1)N1CCc2ccccc2C1)c1cccc(F)c1 (configuration not stated) | 28.7 (≈ 78.8 µM) |
| Cc1cccc(C)c1NC(=O)c1ccc2c(c1)CCN2S(C)(=O)=O | 8.3 (≈ 24.1 µM) |
| CCN1CCCC1CNC(=O)C(=O)Nc1ccccc1 (configuration not stated) | > 41.3 |
| O=c1cccc2n1CC1CNCC2C1 (configuration not stated) | > 28.5 |
| O=C(COC(=O)CC1CC2CCC1C2)Nc1ccc(F)cc1Cl (configuration not stated) | 13.2 (≈ 38.8 µM) |

| SMILES | solubility kinetic [µg/mL] |
| --- | --- |
| N#CC1=C(N)N2C(=C(C#N)C13CCCC3)Nc1ccccc12 | 36.9 (≈ 128 µM) |
| Cc1ccc(C)c(C(=O)CCC(=O)Nc2ccc(F)cc2)c1 | 1 (≈ 3.34 µM) |
| Cc1cc(C)c(S(=O)(=O)NCC(=O)NCc2ccccn2)c(C)c1 | > 52.1 |
| CC(=O)OC1(c2ccccc2)CCN(C)CC1(C)C.Cl (configuration not stated) | 44.2 |
| Cc1ccc(C)c2sc(N)nc12 | > 26.7 |
| CC(=O)C1=C(c2ccccc2)NC(=O)NC1c1cccs1 (configuration not stated) | 28.2 (≈ 94.5 µM) |
| CC(=O)Nc1cccc(NC(=O)/C=C/c2ccc(S(=O)(=O)N3CCOCC3)cc2)c1 | 18.8 (≈ 43.8 µM) |
| COCCCNc1nc2nonc2nc1N1CCN2CCCC2C1 (configuration not stated) | > 50 |
| CCc1nc(NCCO)c(C#N)c2c1CSC(C)(C)C2 | 41.2 (≈ 141 µM) |
| CCn1ccnc1CNC(=O)c1ccc2oc(C(C)C)nc2c1 | > 46.9 |
| CCN(CC)C(=O)c1sc(NC(=O)C(C)C)c(C#N)c1C | > 46.1 |
| Cc1ncc([N+](=O)[O-])n1Cc1cccc(F)c1 | > 35.3 |
| O=C(Nc1ccc(SC(F)F)cc1)c1ccccc1F | 6.1 (≈ 20.5 µM) |
| N#C/C(=C\Nc1ccc(F)c(Cl)c1)S(=O)(=O)c1ccccn1 | 42 (≈ 124 µM) |
| O=C(NC1CCOc2ccccc21)c1ccc(=O)[nH]c1 (configuration not stated) | > 40.5 |
| COC(=O)Nc1nncs1 | > 23.9 |
| Cc1ccc(Cc2cnc(NC(=O)C3=NCCN3)s2)cc1 | 11.5 (≈ 38.3 µM) |
| Cc1cccc(C(=O)OC(C)CN2CCN(C)CC2)c1.Cl (configuration not stated) | > 46.9 |
| O=C(NCC1CCCCC1)c1cc2ccccc2cc1O | 9.7 (≈ 34.2 µM) |
| O=C(Nc1ccccc1)Nc1ccc(NC(=O)c2ccccc2O)cc1 | < 0.2 |
| O=c1[nH]c2ccc(S(=O)(=O)N3CCCC3)cc2[nH]1 | > 40.1 |
| O=C(CN1C(=O)c2ccccc2S1(=O)=O)NCc1ccccc1 | > 49.6 |

| SMILES | solubility kinetic [µg/mL] |
| --- | --- |
| Cc1ccc(C(O)P(=O)(OC(C)C)c2ccc(N(C)C)cc2)cc1 (configuration not stated) | > 52.1 |
| CSc1ccccc1NC(=O)c1ccccc1 | 28.8 (≈ 118 µM) |
| CCOC(=O)C1CCN(C(=O)c2ccc(C)o2)CC1 | > 39.8 |
| N#Cc1ccccc1OCC(=O)NC(=O)NC1CCS(=O)(=O)C1 (configuration not stated) | > 50.6 |
| Br.C=CCn1c(C)csc1=Nc1ccccc1C | 10.9 |
| CN(C)c1cc(-c2ccc(Cl)c(Cl)c2)oc(=O)c1Cl | 0.7 (≈ 2.2 µM) |
| Cn1cccc1/C=C(/C#N)c1ccc(F)cc1 | 2.9 (≈ 12.8 µM) |
| CSc1ccc(CN2C(=O)NC3(CCCCCCC3)C2=O)cc1 | 5.6 (≈ 16.8 µM) |
| Cc1ccc2nc(-c3ccccc3)oc(=O)c2c1 | 0.9 (≈ 3.79 µM) |
| Cc1cccc(/C=C(\C(=O)O)c2ccc(S(=O)(=O)N3CCCC3)s2)c1 | > 56.6 |
| COc1ccccc1CC(=O)NC1CC1 | 29.6 (≈ 144 µM) |
| Cc1ccc2nc(-c3ccncc3)cc(C(=O)Nc3ccncc3)c2c1 | 3.5 (≈ 10.3 µM) |
| CCCCNC(=O)C1CC(=O)N(CCc2ccc(C)cc2)C1 (configuration not stated) | > 45.4 |
| CCc1ccnc(NS(=O)(=O)c2ccc3c(c2)CCO3)c1 | 17.6 (≈ 57.8 µM) |
| CCOC(=O)N1CCC(NC(=O)Cc2ccccc2)CC1 | > 43.6 |
| Cc1ccccc1NC(=O)NC1CCS(=O)(=O)C1 (configuration not stated) | > 40.2 |
| CC(C)C(=O)Nc1ccc(N2CCOCC2)c(S(=O)(=O)Nc2ccccc2Cl)c1 | 2.8 (≈ 6.39 µM) |
| Nc1cccc2c1C(=O)N(CCOc1ccccc1F)C2=O | 20.3 (≈ 67.6 µM) |
| O=C(Nc1ccccc1F)N1CCc2ccccc2C1 | > 40.5 |
| O=C(O)c1cccnc1SCc1ccc([N+](=O)[O-])cc1 | > 43.5 |
| CS(=O)(=O)CCSc1ncccc1C(=O)NCc1cccs1 | 53.1 (≈ 149 µM) |
